# Experimental data as given in ChEMBL document CHEMBL1158459, “Discovery of a peroxisome proliferator activated receptor gamma (PPARgamma) modulator with balanced PPARalpha activity for the treatment of type 2 diabetes and dyslipidemia” (J Med Chem, 2009).
# Active and inactive are the calls of the source. The calls are words filed in the database; no cut-off is given here.
# Experiments:
# [1] = tested on: Rattus norvegicus; test: (§1) AUC in rat at 2 mg/kg, po; format: ADME, organism-based, Plasma; set-up: dose 2 mg/kg, route oral; conditions: in vivo
# [2] = target: T1, Peroxisome proliferator-activated receptor alpha (Homo sapiens, UniProt Q07869); test: Inhibition of human PPARalpha receptor by scintillation proximity assay
# T1 sequence (Q07869 whole entry): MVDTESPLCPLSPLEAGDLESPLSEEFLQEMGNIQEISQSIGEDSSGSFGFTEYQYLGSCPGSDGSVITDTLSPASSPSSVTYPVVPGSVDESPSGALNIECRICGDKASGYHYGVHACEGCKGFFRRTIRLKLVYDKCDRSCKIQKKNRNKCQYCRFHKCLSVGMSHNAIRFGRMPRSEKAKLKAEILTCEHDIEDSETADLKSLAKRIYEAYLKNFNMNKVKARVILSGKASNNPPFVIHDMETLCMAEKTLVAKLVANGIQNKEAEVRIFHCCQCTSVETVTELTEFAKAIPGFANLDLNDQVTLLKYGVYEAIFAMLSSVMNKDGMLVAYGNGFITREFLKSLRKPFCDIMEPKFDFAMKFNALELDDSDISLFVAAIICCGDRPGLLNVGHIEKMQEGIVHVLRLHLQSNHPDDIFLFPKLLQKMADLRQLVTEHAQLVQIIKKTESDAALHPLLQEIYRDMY
# [3] = target: T1, Peroxisome proliferator-activated receptor alpha; format: functional, cell-based, COS-1
# Description: Agonist activity at human PPARalpha receptor expressed in african green monkey COS1 cells co-transfected with fused yeast Gal4-DBD by transactivation assay
# [4] = target: T2, Peroxisome proliferator-activated receptor alpha (Mus musculus, UniProt P23204); test: Agonist activity at mouse PPARalpha receptor expressed in african green monkey COS1 cells co-transfected with fused yeast Gal4-DBD by transactivation assay; format: functional, cell-based, COS-1
# T2 sequence (P23204 whole entry): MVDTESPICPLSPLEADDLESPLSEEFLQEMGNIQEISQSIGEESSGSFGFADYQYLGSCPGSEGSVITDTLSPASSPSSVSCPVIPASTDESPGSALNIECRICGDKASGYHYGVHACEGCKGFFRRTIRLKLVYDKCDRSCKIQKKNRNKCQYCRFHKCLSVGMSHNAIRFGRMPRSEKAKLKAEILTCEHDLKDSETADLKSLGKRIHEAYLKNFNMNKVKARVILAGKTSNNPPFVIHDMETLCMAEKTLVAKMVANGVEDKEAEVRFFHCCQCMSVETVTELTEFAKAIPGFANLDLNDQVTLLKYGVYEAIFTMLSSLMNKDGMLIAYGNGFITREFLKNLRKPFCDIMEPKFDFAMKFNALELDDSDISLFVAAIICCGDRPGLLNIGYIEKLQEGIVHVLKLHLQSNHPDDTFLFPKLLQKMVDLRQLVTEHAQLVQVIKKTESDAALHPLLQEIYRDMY
# [5] = tested on: Mus musculus; test: Antidiabetic activity in C57BLKS/J-m+/+Leprdb db/db mouse assessed as reduction in plasma glucose levels at 10 mg/kg, po once daily for 11 days relative to control; format: functional; set-up: scale not given: the % may be the effect or the level left
# [6] = tested on: Mus musculus; test: Antidiabetic activity in C57BLKS/J-m+/+Leprdb db/db mouse assessed as reduction in plasma triglyceride levels at 10 mg/kg, po once daily for 11 days relative to control; format: functional; set-up: scale not given: the % may be the effect or the level left
# [7] = target: T3, Peroxisome proliferator-activated receptor gamma (Homo sapiens, UniProt P37231)
# T3 sequence (P37231 whole entry): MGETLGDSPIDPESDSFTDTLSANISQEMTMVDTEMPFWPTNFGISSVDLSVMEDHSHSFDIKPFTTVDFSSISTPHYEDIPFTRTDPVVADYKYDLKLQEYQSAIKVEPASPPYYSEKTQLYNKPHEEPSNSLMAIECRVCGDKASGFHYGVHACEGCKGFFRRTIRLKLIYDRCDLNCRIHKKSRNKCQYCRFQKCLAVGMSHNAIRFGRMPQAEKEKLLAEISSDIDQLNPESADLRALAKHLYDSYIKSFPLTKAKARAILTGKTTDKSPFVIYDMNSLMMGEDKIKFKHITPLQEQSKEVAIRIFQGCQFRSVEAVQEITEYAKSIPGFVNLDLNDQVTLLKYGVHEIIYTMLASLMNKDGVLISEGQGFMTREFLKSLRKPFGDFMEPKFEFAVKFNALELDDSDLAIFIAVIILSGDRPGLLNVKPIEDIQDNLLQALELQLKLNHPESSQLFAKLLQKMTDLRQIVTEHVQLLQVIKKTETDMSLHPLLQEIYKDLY
# Description: Inhibition of human PPARgamma receptor by scintillation proximity assay
# [8] = target: T3, Peroxisome proliferator-activated receptor gamma; remark: listed apart in the source
# Description: (§2) Agonist activity at human PPARgamma receptor expressed in african green monkey COS1 cells co-transfected with fused yeast Gal4-DBD by transactivation assay
# [9] = target: T3, Peroxisome proliferator-activated receptor gamma; conditions: cos-1
# Description: as §2
# [10] = Cmax in C57BLKS/J-m+/+Leprdb db/db mouse at 10 mg/kg, po once daily for 11 days; format: ADME, organism-based; set-up: dose 10 mg/kg, route oral; conditions: in vivo
# [11] = tested on: Mus musculus; test: Antidiabetic activity in high fat diet-fed streptozotocin-treated mouse assessed as reduction in plasma glucose levels at 5 mg/kg, po once daily for 12 days relative to control; format: functional; set-up: scale not given: the % may be the effect or the level left
# [12] = tested on: Mus musculus; test: Antidiabetic activity in high fat diet-fed streptozotocin-treated mouse assessed as reduction in plasma glucose levels at 30 mg/kg, po once daily for 12 days relative to control; format: functional; set-up: scale not given: the % may be the effect or the level left
# [13] = tested on: Rattus norvegicus; test: Antidiabetic activity in Zucker fa/fa rat assessed as decrease in triglyceride levels at 0.03 mg/kg, po once daily for 7 days; format: functional, organism-based; set-up: dose 0.03 mg/kg
# [14] = tested on: Rattus norvegicus; test: Antidiabetic activity in Zucker fa/fa rat assessed as decrease in triglyceride levels at 0.3 mg/kg, po once daily for 7 days; format: functional, organism-based; set-up: dose 0.3 mg/kg
# [15] = tested on: Rattus norvegicus; test: Antidiabetic activity in Zucker fa/fa rat assessed as decrease in triglyceride levels at 3 mg/kg, po once daily for 7 days; format: functional, organism-based; set-up: dose 3 mg/kg
# [16] = tested on: Rattus norvegicus; test: Antidiabetic activity in Zucker fa/fa rat assessed as decrease in triglyceride levels at 15 mg/kg, po once daily for 7 days; format: functional, organism-based; set-up: dose 15 mg/kg
# [17] = tested on: Rattus norvegicus; test: Antidiabetic activity in Zucker fa/fa rat assessed as decrease in triglyceride levels at 1 mg/kg, po once daily for 7 days; format: functional, organism-based; set-up: dose 1 mg/kg
# [18] = tested on: Rattus norvegicus; test: Antidiabetic activity in Zucker fa/fa rat assessed as decrease in triglyceride levels at 10 mg/kg, po once daily for 7 days; format: functional, organism-based; set-up: dose 10 mg/kg
# [19] = tested on: Rattus norvegicus; test: Antidiabetic activity in Zucker fa/fa rat assessed as decrease in triglyceride levels at 100 mg/kg, po once daily for 7 days; format: functional, organism-based; set-up: dose 100 mg/kg
# [20] = tested on: Rattus norvegicus; test: Antidiabetic activity in po dosed Zucker fa/fa rat assessed as insulin lowering activity treated once daily for 7 days; format: functional
# [21] = AUC in Sprague-Dawley rat at 150 mg/kg, po once daily for 14 days; format: ADME, organism-based; set-up: dose 150 mg/kg, route oral; conditions: plasma
# [22] = as §1; format: ADME, organism-based, Plasma; set-up: dose 2 mg/kg, route oral; conditions: plasma
# [23] = tested on: Canis familiaris; test: Antidiabetic activity in Beagle dog assessed as reduction in total cholesterol level at 4 mg/kg, po once daily for 14 days relative to control; format: functional, Canis lupus familiaris; set-up: scale not given: the % may be the effect or the level left
# [24] = tested on: Syrian golden hamster; test: Antidiabetic activity in Syrian golden hamster assessed as reduction in cholesterol level at 100 mg/kg, po once daily for 9 days relative to control; format: functional, Mesocricetus auratus; set-up: scale not given: the % may be the effect or the level left
# [25] = tested on: Syrian golden hamster; test: Antidiabetic activity in Syrian golden hamster assessed as reduction in triglyceride level at 100 mg/kg, po once daily for 9 days relative to control; format: functional, Mesocricetus auratus; set-up: scale not given: the % may be the effect or the level left
# [26] = AUC in Syrian golden hamster at 100 mg/kg, po once daily for 9 days; format: ADME, organism-based, Mesocricetus auratus; set-up: dose 100 mg/kg, route oral; conditions: plasma
# [27] = tested on: Canis familiaris; test: Antidiabetic activity in Beagle dog assessed as reduction in total cholesterol level at 50 mg/kg, po once daily for 14 days relative to control; format: functional, Canis lupus familiaris; set-up: scale not given: the % may be the effect or the level left
# [28] = AUC in Beagle dog at 50 mg/kg, po once daily for 14 days; format: ADME, organism-based, Canis lupus familiaris; set-up: dose 50 mg/kg, route oral; conditions: plasma
# [29] = Cmax in Beagle dog at 50 mg/kg, po once daily for 14 days; format: ADME, organism-based, Canis lupus familiaris; set-up: dose 50 mg/kg, route oral; conditions: in vivo
# [30] = AUC in Sprague-Dawley rat at 300 mg/kg, po once daily for 14 days; format: ADME, organism-based; set-up: dose 300 mg/kg, route oral; conditions: plasma
smiles,measurement,setting,value
CC[C@@](C)(Oc1cccc(Cn2c(C)c(C(=O)c3ccc(Cl)cc3)c3ccc(OC(F)(F)F)cc32)c1)C(=O)O (stereo in doubt; 12j),AUC,[1],2.8 µM·h
same,IC50,[2],0.764 µM
same,EC50,[3],0.129 µM
same,EC50,[4],> 1 µM
same,Activity,[5]; 10 mg/kg,45%
same,Activity,[6]; 10 mg/kg,3%
same,IC50,[7],0.005 µM
same,EC50,[8],0.002 µM
CC[C@@](C)(Oc1cccc(Cn2c(C)c(C(=O)c3ccc(Cl)cc3)c3ccc(OC(F)(F)F)cc32)c1)C(=O)O (stereo in doubt; 12i),AUC,[1],1.3 µM·h
same,IC50,[2],0.087 µM
same,EC50,[3],0.107 µM
same,EC50,[4]; cos-1,> 1 µM
same,Activity,[5]; 10 mg/kg,71%
same,Activity,[6]; 10 mg/kg,51%
same,IC50,[7],0.009 µM
same,EC50,[9],0.002 µM
CN(CCOc1ccc(CC2SC(=O)NC2=O)cc1)c1ccccn1 (stereo not drawn) [ROSIGLITAZONE],Cmax,[10],68 µM
same,Activity,[11],36%
same,Activity,[12],45%
same,Activity,[13],Active
same,Activity,[14],Active
same,Activity,[15],Active
same,Activity,[16],Active
same,Activity,[17],Active
same,Activity,[18],Active
same,Activity,[19],Active
same,ED50,[20],25 µM·h
same,AUC at 336 h,[21],600 µM·h
same,AUC,[22],16.4 µM·h
same,EC50,[4],> 3 µM
same,Activity,[5],76%
same,Activity,[6],71%
CCC(C)(C)C(=O)O[C@H]1C[C@@H](C)C=C2C=C[C@H](C)[C@H](CC[C@@H]3C[C@@H](O)CC(=O)O3)[C@H]21 [SIMVASTATIN],Activity,[23],18.4%
CCC[C@H](Oc1cccc(Cn2c(C)c(C(=O)c3ccc(Cl)cc3)c3ccc(OC(F)(F)F)cc32)c1)C(=O)O,AUC,[22],1.2 µM·h
same,IC50,[2],> 50 µM
same,EC50,[3],> 3 µM
same,EC50,[4],> 3 µM
same,Activity,[5],22%
same,Activity,[6],8%
same,IC50,[7],0.008 µM
same,EC50,[8],0.001 µM
CC(C)OC(=O)C(C)(C)Oc1ccc(C(=O)c2ccc(Cl)cc2)cc1 [FENOFIBRATE],Activity,[24],22.7%
same,Activity,[25],33.7%
same,AUC at 216 h,[26],1800 µM·h
same,Activity,[27],17%
same,AUC at 336 h,[28],117 µM·h
same,Cmax,[29],15 µM
same,AUC at 336 h,[30],5600 µM·h
Cc1c(C(=O)c2ccc(Cl)cc2)c2ccc(OC(F)(F)F)cc2n1Cc1cccc(OC2(C(=O)O)CCC2)c1,IC50,[2],1.08 µM
same,EC50,[3],0.185 µM
same,EC50,[4],0.15 µM
same,IC50,[7],0.016 µM
same,EC50,[8],0.012 µM
Cc1c(C(=O)c2ccc(Cl)cc2)c2ccc(OC(F)(F)F)cc2n1Cc1cccc(OCC(=O)O)c1,IC50,[2],> 15 µM
same,EC50,[3],> 3 µM
same,EC50,[4],0.35 µM
same,IC50,[7],0.002 µM
same,EC50,[8],0.002 µM
